These results are taken from PMC11173529, “Structure–Activity Relationship Studies in a Series of Xanthine Inhibitors of SLACK Potassium Channels” (Molecules, 2024).

The test deals with T1, human G288S SLACK (Homo sapiens, UniProt Q5JUK3, G269S).
T1 construct: host or cells: CHO-K1
T1 sequence (Q5JUK3 1-1235 isoform Q5JUK3-3 G288S): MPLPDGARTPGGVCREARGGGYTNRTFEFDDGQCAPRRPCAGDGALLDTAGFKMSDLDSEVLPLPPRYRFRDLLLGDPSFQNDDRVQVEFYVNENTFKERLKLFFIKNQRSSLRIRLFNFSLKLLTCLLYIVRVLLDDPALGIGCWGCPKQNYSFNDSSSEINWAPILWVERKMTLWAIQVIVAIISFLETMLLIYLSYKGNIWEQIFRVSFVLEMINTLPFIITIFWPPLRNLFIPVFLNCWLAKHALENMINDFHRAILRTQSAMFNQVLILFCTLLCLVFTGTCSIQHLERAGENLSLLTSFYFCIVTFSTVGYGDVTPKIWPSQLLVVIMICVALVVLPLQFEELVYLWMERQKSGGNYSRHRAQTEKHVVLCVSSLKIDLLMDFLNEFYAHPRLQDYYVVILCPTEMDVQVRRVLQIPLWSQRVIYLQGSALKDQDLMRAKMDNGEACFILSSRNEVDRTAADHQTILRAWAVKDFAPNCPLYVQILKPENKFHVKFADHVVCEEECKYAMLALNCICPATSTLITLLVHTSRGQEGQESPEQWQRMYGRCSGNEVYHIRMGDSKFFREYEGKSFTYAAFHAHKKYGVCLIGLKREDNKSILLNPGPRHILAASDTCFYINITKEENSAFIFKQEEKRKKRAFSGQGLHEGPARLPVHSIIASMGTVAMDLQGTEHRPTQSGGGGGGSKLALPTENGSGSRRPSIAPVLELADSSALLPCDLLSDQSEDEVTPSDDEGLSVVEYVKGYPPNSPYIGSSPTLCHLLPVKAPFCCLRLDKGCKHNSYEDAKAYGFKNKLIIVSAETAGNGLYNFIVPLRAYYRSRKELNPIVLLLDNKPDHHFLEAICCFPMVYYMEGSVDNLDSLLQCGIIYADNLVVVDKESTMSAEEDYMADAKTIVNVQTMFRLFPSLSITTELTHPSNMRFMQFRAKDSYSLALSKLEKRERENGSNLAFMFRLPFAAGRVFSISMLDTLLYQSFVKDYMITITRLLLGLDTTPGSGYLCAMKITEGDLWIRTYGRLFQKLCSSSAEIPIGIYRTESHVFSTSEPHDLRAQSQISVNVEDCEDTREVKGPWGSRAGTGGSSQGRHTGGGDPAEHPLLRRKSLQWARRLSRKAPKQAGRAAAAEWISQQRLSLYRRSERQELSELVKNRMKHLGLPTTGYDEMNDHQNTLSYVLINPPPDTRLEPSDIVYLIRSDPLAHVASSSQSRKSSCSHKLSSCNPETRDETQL
Put plainly: Whole-cell APC in CHO cells stably expressing human G288S SLACK. The conditions noted are these: for IC50: APC, CHO cells; for Imax: maximum inhibition at 30 µM standardized to VU0606170 (100%). It is filed as cell-based. From the text: Development of a useful SLACK inhibitor in vivo tool will require potent activity at the corresponding mouse ortholog as studies in appropriate mouse models will be critical. Thus, we evaluated analogs 32 and 48 in our APC assay using CHO cells stably expressing mouse WT SLACK (Table 6). […] We were also eager to evaluate the same compounds with regard to their ability to inhibit clinically relevant GOF SLACK mutants. Both the C-terminus A934T mutant and transmembrane G288S mutant have been associated with clinical cases of EIMFS [3, 7].
Stably transfected monoclonal HEK293 cell lines expressing Slick, Maxi-K α1/β3, Maxi-K α1/β4, CaV3.2, GIRK 1/2, KV2.1, KV7.2, NaV1.7, and TASK-1 were generated as previously described. Stably transfected monoclonal HEK293 cell lines expressing hERG were generated as previously described. CHO-K1 cells expressing human Slack and disease-associated human Slack mutations, G288S and A934T, were generated by transfecting a PiggyBac TRE mammalian expression vector (VectorBuilder, Chicago, IL, USA) containing KCNT1. FuGENE 6 (Promega, Madison, WI, USA) transfection reagent and protocol, together with Opti-MEM (Thermo Fisher Scientific, Walkham, MA, USA), were utilized.
Automated patch-clamp recording was performed with a SyncroPatch 768 PE system (Nanion, Munich, Germany) as previously described. Whole-cell recordings were performed at room temperature. Cells were harvested by first washing with PBS without Mg^2+ or Ca^2+ (Gibco, Billings, MT, USA) to remove cell culture media, followed by dissociation with TryPLE (Gibco, Billings, MT, USA). Cells were then resuspended and diluted to 100,000 cells/mL in external solution. External solution contained 105 mM NaCl, 4 mM KCl, 1 mM MgCl2, 5 mM CaCl2, 10 mM HEPES, and 40 mM N-Methyl-D-glucamine chloride, titrated to pH of 7.4 and osmolarity of 300 mOsm/kg; internal solution contained 70 mM NaCl, 70 mM KF, 10 mM KCl, 5 mM EGTA, and 5 mM HEPES, titrated to a pH of 7.2 and osmolarity of 295 mOsm/kg.
The APC protocol was set as follows: Cells were held at a […] of −80 mV for 100 ms, then a ramp protocol was performed from −100 mV to 80 mV at 0.4 mV/ms, followed by holding the cell at −80 mV for another 100 ms, then steps were performed at −20 mV, 0 mV, +20 mV, +40 mV, and +60 mV for 100 ms of each step. Whole-cell currents were measured at 0 mV and normalized to current after external buffer addition. […] To obtain the concentration-response relationship graphs and IC50 values, we take the median value of the last 7 current amplitude values obtained for each set of data points collected for a given concentration at a particular step.

As to `CCCCN(Cc1cccc(F)c1)c1nc2c(c(=O)n(Cc3cccc(OC)c3)c(=O)n2C)n1C` [Analog 78], the IC50 was determined as 880 nM. Consider `COc1cccc(Cn2c(=O)c3c(nc(N(C)Cc4ccccc4)n3C)n(C)c2=O)c1` [Analog 32], for which the midpoint of inhibition, the IC50, lay at 650 nM and the Imax is 100%. `COc1cccc(Cn2c(=O)c3c(nc(N(Cc4ccc(F)cc4)CC4CC4)n3C)n(C)c2=O)c1` [Analog 81] returned an IC50 of 790 nM. For `COc1cccc(Cn2c(=O)c3c(nc(N(Cc4cccc(F)c4)CC4CC4)n3C)n(C)c2=O)c1` [Analog 79], the IC50 was 1000 nM. `CCCCN(Cc1ccc(F)cc1)c1nc2c(c(=O)n(Cc3cccc(OC)c3)c(=O)n2C)n1C` [Analog 80] yielded an IC50 of 710 nM. `CN(Cc1cccc(F)c1)c1nc2c(c(=O)n(Cc3ccccc3)c(=O)n2C)n1C` [Analog 48] displayed a half-maximal inhibitory concentration (IC50) of 750 nM and an Imax of 100%.

As usually defined, the IC50 is the concentration that inhibits the measured activity by half.
